26 compounds from ChEMBL document CHEMBL5360654, “Indazole as a Phenol Bioisostere: Structure-Affinity Relationships of GluN2B-Selective NMDA Receptor Antagonists” (J Med Chem, 2023) can be followed below.

The source made the active and inactive calls. No cut-off for these calls is given here.

Series [1] deals with T1, Sigma intracellular receptor 2 (Rattus norvegicus, UniProt Q5U3Y7).
T1 sequence (Q5U3Y7 whole entry): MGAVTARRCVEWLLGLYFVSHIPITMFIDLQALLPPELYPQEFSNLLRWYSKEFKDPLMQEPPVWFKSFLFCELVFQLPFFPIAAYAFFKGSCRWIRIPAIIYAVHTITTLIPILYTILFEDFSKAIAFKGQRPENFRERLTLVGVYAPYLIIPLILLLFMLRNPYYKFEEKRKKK
Nature of the series: Displacement of [3H]di-o-tolylguanidine from sigma2 receptor in rat liver membrane assessed as inhibition constant measured after 120 mins by scintillation counting method. Format: cell membranes. (In general: Displacement assays read how much labelled ligand stays bound in the presence of the test substance.)

For series [2], the target named is Sigma non-opioid intracellular receptor 1 (Cavia porcellus, UniProt Q60492). The series can be described thus: Displacement of [3H]-(+)-pentazocine from sigma1 receptor in guinea pig brain membrane assessed as inhibition constant measured after 120 mins by scintillation counting method. Type of series: cell membranes.
Series [3] addresses T2, Glutamate receptor ionotropic, NMDA 2B (Homo sapiens, UniProt Q05586+Q13224). Nature of the series: Displacement of [3H]ifenprodil from human GluN2B expressed in mouse L-M(TK-) cell membrane coexpressing GluN1a assessed as inhibition constant measured after 120 mins by competitive binding assay. Type of series: cell membranes.
A short description of series [4]: Drug metabolism in rat liver microsome assessed as formation of glucuronide metabolite (2S,3S,4S,5R,6R)-6-(5-((S)-3-(4-benzylpiperidin-1-yl)-1-hydroxypropyl)-1H-indazol-1-yl)-3,4,5-trihydroxytetrahydro-2H-pyran-2-carboxylic acid in presence of NADPH/UDP-GA by LC-MS analysis. Format: ADME. To be noted: microsomes.
Series [5] addresses T2, Glutamate receptor ionotropic, NMDA 2B. Nature of the series: Antagonist activity at GluN2B receptor (unknown origin) expressed in Xenopus oocytes coexpressing GluN1a at -70 mV holding potential in presence of (S)-glutamate/glycine by TEVC analysis. Type of series: cell-based, Oocyte.
A short description of series [6]: Metabolic stability in rat liver microsome assessed as intact compound incubated for 90 mins in presence of NADPH by LC-MS analysis. Conditions: liver microsomes, read-out: Stability. Format: ADME. (Liver microsomes are a subcellular fraction often used to study metabolism.)
Series [7] in a line: Drug metabolism in rat liver microsome assessed as formation of glucuronide metabolite (2S,3S,4S,5R,6R)-6-(5-((R)-3-(4-benzylpiperidin-1-yl)-1-hydroxypropyl)-1H-indazol-1-yl)-3,4,5-trihydroxytetrahydro-2H-pyran-2-carboxylic acid in presence of NADPH/UDP-GA by LC-MS analysis. Format: ADME. To be noted: microsomes.
Series [8] is described as follows: Drug metabolism in rat liver microsome assessed as formation of glucuronide metabolite (2S,3S,4S,5R,6R)-6-(5-(3-(4-(4-fluorobenzyl)piperidin-1-yl)prop-1-yn-1-yl)-1H-indazol-1-yl)-3,4,5-trihydroxytetrahydro-2H-pyran-2-carboxylic acid in presence of NADPH/UDP-GA by LC-MS analysis. Format: ADME. To be noted: microsomes.
Series [9] is described as follows: Lipophilicity, log D of compound at pH 7.4 by LC-MS analysis. Format: physicochemical. Conditions: buffer.
The target of series [10] is Glutamate receptor ionotropic, NMDA 2B (Homo sapiens) (UniProt Q13224). The series can be described thus: Antagonist activity at GluN2B receptor (unknown origin) expressed in Xenopus oocytes coexpressing GluN1a at 10 uM at -70 mV holding potential in presence of (S)-glutamate/glycine by TEVC analysis relative to control. Type of series: cell-based. To be noted: Oocyte, filed as antagonist.

Series [11] can be described thus: Drug metabolism in rat liver microsome assessed as formation of glucuronide metabolite (2S,3S,4S,5R,6S)-6-(4-((1R,2S)-3-(4-benzylpiperidin-1-yl)-1-hydroxy-2-methylpropyl)phenoxy)-3,4,5-trihydroxytetrahydro-2H-pyran-2-carboxylic acid in presence of NADPH/UDP-GA by LC-MS analysis. Format: ADME. Conditions: microsomes.
Series [12] concerns the target Glutamate NMDA receptor; GRIN1/GRIN2B (Homo sapiens, UniProt Q05586+Q13224). The series can be described thus: Antagonist activity at GluN1A/GluN2B receptor (unknown origin) expressed in Xenopus oocytes by voltage clamp method. Type of series: cell-based, Oocyte.
The target in series [13] is Glutamate receptor ionotropic, NMDA 2B (Homo sapiens) (UniProt Q13224). Nature of the series: Antagonist activity at GluN2B receptor (unknown origin) expressed in Xenopus oocytes coexpressing GluN1a at 1 uM at -70 mV holding potential in presence of (S)-glutamate/glycine by TEVC analysis. Type of series: cell-based. To be noted: Oocyte, filed as antagonist.
Series [14] in a line: Drug metabolism in rat liver microsome assessed as formation of glucuronide metabolite (2S,3S,4S,5R,6S)-6-(4-(3-(4-(4-fluorobenzyl)piperidin-1-yl)prop-1-yn-1-yl)phenoxy)-3,4,5-trihydroxytetrahydro-2H-pyran-2-carboxylic acid in presence of NADPH/UDP-GA by LC-MS analysis. Format: ADME. Conditions: microsomes.

One may read the Ki as the dissociation constant of the complex between target and ligand, obtained from inhibition or displacement. Broadly, the IC50 is the midpoint of a concentration-inhibition curve. In general, logD refers to lipophilicity at a set pH, counting ionised and neutral species. Read a low logD as a more hydrophilic compound. Usually inhibition stands for the drop in the measured response relative to a control, in per cent.

Sigma non-opioid intracellular receptor 1, sequence (Q60492 whole entry): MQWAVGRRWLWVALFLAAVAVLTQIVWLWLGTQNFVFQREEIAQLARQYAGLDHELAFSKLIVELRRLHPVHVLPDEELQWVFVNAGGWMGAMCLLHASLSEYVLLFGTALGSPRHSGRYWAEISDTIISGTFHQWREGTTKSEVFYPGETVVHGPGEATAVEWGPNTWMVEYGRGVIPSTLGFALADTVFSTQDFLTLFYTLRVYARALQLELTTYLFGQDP
Glutamate receptor ionotropic, NMDA 2B (Homo sapiens), sequence (Q13224 27-1484 limits assumed): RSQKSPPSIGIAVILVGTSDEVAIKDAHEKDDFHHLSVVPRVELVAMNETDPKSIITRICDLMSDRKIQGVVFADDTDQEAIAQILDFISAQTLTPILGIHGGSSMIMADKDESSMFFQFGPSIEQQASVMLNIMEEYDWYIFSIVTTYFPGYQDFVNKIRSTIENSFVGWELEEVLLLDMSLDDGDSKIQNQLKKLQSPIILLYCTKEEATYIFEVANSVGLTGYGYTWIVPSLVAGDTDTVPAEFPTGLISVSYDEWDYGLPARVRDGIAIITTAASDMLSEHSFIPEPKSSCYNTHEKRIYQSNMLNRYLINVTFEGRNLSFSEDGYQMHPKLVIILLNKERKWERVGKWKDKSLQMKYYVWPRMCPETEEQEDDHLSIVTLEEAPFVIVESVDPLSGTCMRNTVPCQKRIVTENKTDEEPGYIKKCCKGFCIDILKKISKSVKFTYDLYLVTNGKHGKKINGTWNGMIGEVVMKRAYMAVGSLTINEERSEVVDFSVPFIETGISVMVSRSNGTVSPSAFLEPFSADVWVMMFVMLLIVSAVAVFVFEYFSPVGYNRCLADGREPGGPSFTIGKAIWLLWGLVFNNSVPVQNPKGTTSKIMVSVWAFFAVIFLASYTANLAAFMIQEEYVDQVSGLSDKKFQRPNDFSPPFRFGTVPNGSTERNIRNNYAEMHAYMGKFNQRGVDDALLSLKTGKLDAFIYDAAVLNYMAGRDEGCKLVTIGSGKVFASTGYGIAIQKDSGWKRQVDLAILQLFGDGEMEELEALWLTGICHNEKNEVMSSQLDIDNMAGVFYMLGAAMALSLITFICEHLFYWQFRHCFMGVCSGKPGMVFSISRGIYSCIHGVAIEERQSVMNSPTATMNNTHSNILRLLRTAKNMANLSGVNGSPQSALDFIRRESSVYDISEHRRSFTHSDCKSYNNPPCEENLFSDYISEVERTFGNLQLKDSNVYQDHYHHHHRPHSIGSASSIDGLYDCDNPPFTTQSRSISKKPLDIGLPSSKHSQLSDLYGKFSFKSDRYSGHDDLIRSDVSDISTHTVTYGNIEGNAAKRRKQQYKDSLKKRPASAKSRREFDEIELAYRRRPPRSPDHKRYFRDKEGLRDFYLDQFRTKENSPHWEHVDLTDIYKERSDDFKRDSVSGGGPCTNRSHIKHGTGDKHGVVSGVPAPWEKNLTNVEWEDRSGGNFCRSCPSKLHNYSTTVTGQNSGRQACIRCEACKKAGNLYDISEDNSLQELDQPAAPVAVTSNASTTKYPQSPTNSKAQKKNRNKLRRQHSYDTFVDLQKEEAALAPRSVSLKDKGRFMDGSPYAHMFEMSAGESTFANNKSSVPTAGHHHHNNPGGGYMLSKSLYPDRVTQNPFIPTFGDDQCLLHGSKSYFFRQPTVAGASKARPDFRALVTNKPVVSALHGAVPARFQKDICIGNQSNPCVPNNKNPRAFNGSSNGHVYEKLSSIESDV
T2 sequence (Q13224 whole entry, one chain of several): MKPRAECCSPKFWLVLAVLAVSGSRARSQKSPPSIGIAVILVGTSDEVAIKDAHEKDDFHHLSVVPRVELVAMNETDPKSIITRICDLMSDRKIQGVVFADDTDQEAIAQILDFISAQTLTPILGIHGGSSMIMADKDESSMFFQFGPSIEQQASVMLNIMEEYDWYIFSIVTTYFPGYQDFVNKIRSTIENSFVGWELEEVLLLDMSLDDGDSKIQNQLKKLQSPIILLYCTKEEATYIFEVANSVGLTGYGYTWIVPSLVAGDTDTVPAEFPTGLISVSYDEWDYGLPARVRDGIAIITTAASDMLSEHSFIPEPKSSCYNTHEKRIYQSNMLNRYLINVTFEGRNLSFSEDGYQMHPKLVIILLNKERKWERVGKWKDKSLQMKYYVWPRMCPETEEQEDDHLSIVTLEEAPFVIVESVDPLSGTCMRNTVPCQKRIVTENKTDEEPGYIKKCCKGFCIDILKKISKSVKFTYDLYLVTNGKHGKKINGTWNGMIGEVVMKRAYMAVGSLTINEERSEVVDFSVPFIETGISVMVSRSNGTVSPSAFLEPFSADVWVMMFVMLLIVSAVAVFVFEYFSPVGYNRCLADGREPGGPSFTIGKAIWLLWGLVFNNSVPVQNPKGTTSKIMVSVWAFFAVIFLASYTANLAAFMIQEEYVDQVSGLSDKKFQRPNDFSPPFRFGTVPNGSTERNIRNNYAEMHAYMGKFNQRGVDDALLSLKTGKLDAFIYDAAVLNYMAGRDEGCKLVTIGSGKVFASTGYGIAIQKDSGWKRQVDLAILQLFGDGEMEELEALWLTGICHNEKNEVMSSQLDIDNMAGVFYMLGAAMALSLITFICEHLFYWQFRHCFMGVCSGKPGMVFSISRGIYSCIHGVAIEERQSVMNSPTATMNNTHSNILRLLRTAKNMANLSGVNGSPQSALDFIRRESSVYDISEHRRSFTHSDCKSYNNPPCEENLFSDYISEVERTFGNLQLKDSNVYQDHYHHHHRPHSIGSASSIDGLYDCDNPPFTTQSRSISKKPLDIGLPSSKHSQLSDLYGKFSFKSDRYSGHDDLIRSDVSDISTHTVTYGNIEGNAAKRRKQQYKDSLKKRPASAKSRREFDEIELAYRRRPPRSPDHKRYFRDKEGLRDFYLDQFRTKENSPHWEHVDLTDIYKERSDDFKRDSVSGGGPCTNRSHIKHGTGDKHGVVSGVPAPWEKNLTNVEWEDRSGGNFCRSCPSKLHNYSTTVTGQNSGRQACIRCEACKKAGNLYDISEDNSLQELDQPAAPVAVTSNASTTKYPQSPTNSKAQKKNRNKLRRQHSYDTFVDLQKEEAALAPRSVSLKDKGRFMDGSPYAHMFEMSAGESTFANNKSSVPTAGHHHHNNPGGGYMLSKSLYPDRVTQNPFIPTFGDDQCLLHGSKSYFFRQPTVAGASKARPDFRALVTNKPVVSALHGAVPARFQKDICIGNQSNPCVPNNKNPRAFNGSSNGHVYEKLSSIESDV
Glutamate NMDA receptor; GRIN1/GRIN2B, sequence (Q13224 whole entry, other chains not shown): as the sequence (Q13224 whole entry, one chain of several) above

With `O=C(CCN1CCC(Cc2ccc(F)cc2)CC1)c1ccc2[nH]ncc2c1`, the values for the Ki in series [1], in series [2] and in series [3] were 51 nM, 21 nM and 56 nM, respectively.

As for `Fc1ccc(CC2CCN(C/C=C\c3ccc4[nH]ncc4c3)CC2)cc1`, the Ki in series [1] was 97 nM; in [2] it was 77 nM; in series [3] it was 42 nM.

Turning to `OC(CCN1CCC(Cc2ccccc2F)CC1)c1ccc2[nH]ncc2c1` (stereo not given), the Ki in series [1] was determined as 119 nM; in series [2], 224 nM; in series [3], 38 nM.

Turning to `Cn1cc2cc(C#CCN3CCC(Cc4ccccc4)CC3)ccc2n1`, the Ki in [1] is 63 nM; in [2], 23 nM; in series [3] it was 136 nM.

For the compound `O[C@@H](CCN1CCC(Cc2ccccc2)CC1)c1ccc2[nH]ncc2c1`, the results for the Ki in [1], in [2] and in [3] were 124 nM, 86 nM and 93 nM, respectively. In addition, the Drug metabolism entry in series [4] is listed as “Metabolite_Notdetected”. Also, in [5], the IC50 was 72 nM. Also, the remaining at 1.5 h in series [6] was ~67%.

With `O[C@H](CCN1CCC(Cc2ccccc2)CC1)c1ccc2[nH]ncc2c1`, the Ki in [1] came to 241 nM; in [2] it was 58 nM; in series [3], 265 nM. Also, the Drug metabolism result in series [7] is “Metabolite_Notdetected”. The IC50 in series [5] came out at 62 nM. Further, the remaining at 1.5 h in series [6] is ~67%.

Take `Fc1ccc(CC2CCN(CC#Cc3ccc4[nH]ncc4c3)CC2)cc1`: the Ki was 13 nM in series [1], 6.6 nM in [2] and 13 nM in series [3]. In [8], the Drug metabolism entry is “Metabolite_Notdetected”. In addition, the logD in series [9] was determined as 4.35.

As to `c1ccc(CC2CCN(CCCc3ccc4[nH]ncc4c3)CC2)cc1`, the inhibition constant Ki in series [1] worked out at 12 nM; in [2], 7.5 nM; in [3], 5.7 nM. Moreover, the inhibition in series [10] is > 80%. In series [9], this compound had a log distribution coefficient (logD) of 2.63.

`C[C@@H](CN1CCC(Cc2ccccc2)CC1)[C@@H](O)c1ccc(O)cc1`: in series [11], the Drug metabolism entry is listed as “Metabolite_Detected”.

Turning to `Oc1ccc(C#CCN2CCC(Cc3ccccc3)CC2)cc1`, the IC50 in series [12] is 100 nM.

As for `Cn1ncc2cc(C#CCN3CCC(Cc4ccc(F)cc4)CC3)ccc21`, the Ki in series [1] is 63 nM; in [2], 40 nM; in series [3], 29 nM.

For `Fc1ccc(CC2CCN(CC#Cc3ccc4cn[nH]c4c3)CC2)cc1`, the figures for the inhibition constant Ki in series [1], in series [2] and in [3] were 850 nM, 26 nM and 35 nM, respectively.

With `C(#Cc1ccc2cn[nH]c2c1)CN1CCC(Cc2ccccc2)CC1`, the values for the inhibitory constant (Ki) in series [1], in [2] and in series [3] were 520 nM, 12 nM and 53 nM, respectively.

Regarding `C(#Cc1ccc2[nH]ncc2c1)CN1CCC(Cc2ccccc2)CC1`, the Ki in series [1] stood at 11 nM; in series [2] it was 26 nM; in series [3], 11 nM. Besides, half-maximal inhibition in [12] (IC50) required 380 nM. For the same compound, in series [9], the pH-dependent lipophilicity (logD) is 4.17.

As to `Cn1ncc2cc(C#CCN3CCC(Cc4ccccc4)CC3)ccc21`, the Ki in series [1] amounted to 320 nM; in [2], 20 nM; in series [3] it was 38 nM.

As to `C(=C\c1ccc2[nH]ncc2c1)/CN1CCC(Cc2ccccc2)CC1`, the Ki in series [1] amounted to 10 nM; in [2], 2.7 nM; in series [3], 6.6 nM.

With `Fc1ccccc1CC1CCN(CC#Cc2ccc3[nH]ncc3c2)CC1`, the results for the Ki in series [1], in series [2] and in [3] were 31 nM, 57 nM and 25 nM, respectively.

In the case of `O=C(CCN1CCC(Cc2ccccc2F)CC1)c1ccc2[nH]ncc2c1`, the Ki was determined as 19 nM in [1], 17 nM in series [2] and 20 nM in series [3].

On to `Fc1ccc(CC2CCN(CCCc3ccc4[nH]ncc4c3)CC2)cc1`, for which the Ki in series [1] came out at 14 nM; in series [2], 4.2 nM; in series [3], 13 nM.

`C(=C/c1ccc2[nH]ncc2c1)/CN1CCC(Cc2ccccc2)CC1`: the Ki in series [1] turned out to be 135 nM; in [2], 562 nM; in [3], 120 nM.

Take `OC(CCN1CCC(Cc2ccccc2)CC1)c1ccc2[nH]ncc2c1` (stereo not given): the values for the Ki in series [1], in [2] and in series [3] were 88 nM, 55 nM and 38 nM, respectively. Besides, in series [10], the inhibition is > 80%. Besides, the inhibition entry in [13] is “Active”. The compound further came in with a logD in series [9] of 1.75.

For the compound `Cn1cc2cc(C#CCN3CCC(Cc4ccc(F)cc4)CC3)ccc2n1`, the figures for the inhibitory constant (Ki) in series [1], in [2] and in series [3] were 151 nM, 32 nM and 182 nM, respectively.

For `OC(CCN1CCC(Cc2ccc(F)cc2)CC1)c1ccc2[nH]ncc2c1` (stereo not given), the Ki in series [1] was determined as 18 nM; in [2], 12 nM; in series [3] it was 32 nM. The same compound registered a pH-dependent lipophilicity (logD) in [9] of 2.02.

Regarding `O=C(CCN1CCC(Cc2ccccc2)CC1)c1ccc2[nH]ncc2c1`, the Ki is 18 nM in series [1], 8.8 nM in series [2] and 18 nM in series [3]. In addition, the inhibition in series [10] is > 80%. The inhibition entry in [13] is “Active”. In series [9], this compound came in with a logD of 2.64.

For `Oc1ccc(C#CCN2CCC(Cc3ccc(F)cc3)CC2)cc1`, the Ki in [1] amounted to 37 nM; in series [2] it was 36 nM; in series [3] it was 12 nM. Besides, the logD in series [9] came to 4.4. The Drug metabolism entry in series [14] is on record as “Metabolite_Detected”.

Turning to `Fc1ccc(CC2CCN(C/C=C/c3ccc4[nH]ncc4c3)CC2)cc1`, the figures for the Ki in series [1], in [2] and in series [3] were 37 nM, 10 nM and 20 nM, respectively.
